Structures can show the parent of a compound that is named as a salt. Each block holds one compound with its values, some of them ahead of it.
Assays:
Format in all cases: physicochemical
[1] = X-ray powder diffraction before and after DVS (form stability); conditions: 5% to 95% RH
Procedure: XRPD patterns were collected with a PANalytical X'Pert PRO MPD or a PANalytical Empyrean diffractometer using an incident beam of Cu radiation produced using an Optix long, fine-focus source. An elliptically graded multilayer mirror was used to focus Cu Kα X-rays through the specimen and onto the detector. Prior to the analysis, a silicon specimen (NIST SRM 640f) was analyzed to verify the observed position of the Si 111 peak is consistent with the NIST-certified position. A specimen of the sample was sandwiched between 3-μm-thick films and analyzed in transmission geometry. A beam-stop, short antiscatter extension, and antiscatter knife edge were used to minimize the background generated by air. Soller slits for the incident and diffracted beams were used to minimize broadening and asymmetry from axial divergence. Diffraction patterns were collected using a scanning position-sensitive detector (X'Celerator) located 240 mm from the specimen and Data Collector software v. 5.5. All images have the instrument labeled as X'Pert PRO MPD regardless of the instrument used.
XRPD patterns were collected with a PANalytical X'Pert PRO MPD diffractometer using an incident beam of Cu Kα radiation produced using a long, fine-focus source and a nickel filter. The diffractometer was configured using the symmetric Bragg-Brentano geometry. Prior to the analysis, a silicon specimen (NIST SRM 640f) was analyzed to verify the observed position of the Si 111 peak is consistent with the NIST-certified position. A specimen of the sample was prepared as a thin, circular layer centered on a silicon zero-background substrate. Antiscatter slits (SS) were used to minimize the background generated by air. Soller slits for the incident and diffracted beams were used to minimize broadening from axial divergence. Diffraction patterns were collected using a scanning position-sensitive detector (X'Celerator) located 240 mm from the sample and Data Collector software v. 5.5
Dynamic vapor sorption data was collected on a Surface Measurement System DVS Intrinsic instrument. The samples were not dried prior to analysis. Sorption and desorption data were collected over a range from 5% to 95% RH in 10% RH increments under a nitrogen purge. The equilibrium criteria used for the analyses were 0.001 dm/dt weight change in 5 minutes with a minimum step time of 30 minutes and maximum equilibration time of 180 minutes with a 3 minute data logging interval. Data were not corrected for the initial moisture content of the sample.

[2] = Differential scanning calorimetry (DSC), thermal decomposition / endothermic transition; conditions: for Decomposition temperature (DSC): 10° C./min; for First significant endothermic transition (DSC): indicative of thermal degradation or solid-state transformation
Procedure: Differential scanning calorimetry (DSC) is a thermoanalytical technique where the difference in the amount of heat required to increase the temperature of a sample and reference is measured as a function of temperature. Using this technique, phase transitions of a sample can be measured such as melting point. Decomposition can also be observed by DSC as can dehydration events. In the context of DSC measurements, there is also variability and the term “about” means ±1° C., and such variability is to be understood whether a DSC measurement is prefaced by “about” or not unless specified otherwise. Exemplary methods for collecting DSC data are set forth in Example 21. Thermogravimetric analysis, sometimes referred to as, thermal gravimetric analysis (TGA) is a thermal method of thermal analysis where the mass of a sample is measured as a function of time as the sample temperature changes. For example, when samples disclosed herein are heated and a loss in mass is measured prior to decomposition, this is likely indicative of the loss of water from the sample and may indicate that the sample being heated is a hydrate. Exemplary methods for collecting TGA are set forth in Example 23.
DSC was performed using a Mettler-Toledo DSC3+ differential scanning calorimeter. A tau lag adjustment is performed with indium, tin, and zinc. The temperature and enthalpy are adjusted with octane, phenyl salicylate, indium, tin and zinc. The adjustment is then verified with octane, phenyl salicylate, indium, tin, and zinc. The sample was placed into a hermetically sealed aluminum DSC pan, and the weight was accurately recorded. The pan was then inserted into the DSC cell. A weighed aluminum pan configured as the sample pan was placed on the reference side of the cell. The pan lid was pierced prior to sample analysis. Samples were analyzed from 30° C. to 350° C. or 30° C. to 250° C., both at 10° C./min.

[3] = Solubility of the lysine salt in solvents for NMR analysis
Excerpt: Use of TFA as solvent cleaves the sulfate group at the C3 position. ^1H-NMR analysis (CF3COOD) indicated a 1/1 ratio of lysine to cholesterol, as well as ~0.2 eq. triethylamine and some iPrOH.

[4] = listed as crystalline 25HC3S potassium
[5] = listed as crystalline 25HC3S calcium
[6] = listed as crystalline 25HC3S hydroxyethylpyrrolidinium
[7] = listed as crystalline 25HC3S tromethammonium

SMILES: CC(CCCC(C)(C)O)C1CCC2C3CC=C4CC(OS(=O)(=O)O)CCC4(C)C3CCC12C (stereo not drawn) [Salt #1]
Change of x-ray powder diffraction pattern after DVS (in words) [1, 4]: not an appreciable change
Decomposition temperature (DSC) [2, 4]: 198 °C
First significant endothermic transition (DSC) ([2]; listed as potassium): ~198 °C

SMILES: CC(CCCC(C)(C)O)C1CCC2C3CC=C4CC(OS(=O)(=O)O)CCC4(C)C3CCC12C (stereo not drawn) [Salt #2]
Change of x-ray powder diffraction pattern after DVS (in words) [1, 5]: not an appreciable change
Decomposition temperature (DSC) [2, 5]: about 130 °C

SMILES: CC(CCCC(C)(C)O)C1CCC2C3CC=C4CC(OS(=O)(=O)O)CCC4(C)C3CCC12C (stereo not drawn) [Salt #3]
Decomposition temperature (DSC) ([2]; listed as crystalline 25HC3S zinc): about 119 °C

SMILES: CC(CCCC(C)(C)O)C1CCC2C3CC=C4CC(OS(=O)(=O)O)CCC4(C)C3CCC12C (stereo not drawn) [Salt #4]
Change of x-ray powder diffraction pattern after DVS (in words) ([1]; listed as crystalline 25HC3S choline): does not appreciably change
First significant endothermic transition (DSC) ([2]; listed as choline): ~198 °C

SMILES: CC(CCCC(C)(C)O)C1CCC2C3CC=C4CC(OS(=O)(=O)O)CCC4(C)C3CCC12C (stereo not drawn) [Salt #5]
Change of x-ray powder diffraction pattern after DVS (in words) ([1]; listed as crystalline 25HC3S hydroxyethylammonium): appearance of extra x-ray powder diffraction peaks

SMILES: CC(CCCC(C)(C)O)C1CCC2C3CC=C4CC(OS(=O)(=O)O)CCC4(C)C3CCC12C (stereo not drawn) [Salt #6]
Change of x-ray powder diffraction pattern after DVS (in words) [1, 6]: different than before
Decomposition temperature (DSC) [2, 6]: about 181 °C

SMILES: CC(CCCC(C)(C)O)C1CCC2C3CC=C4CC(OS(=O)(=O)O)CCC4(C)C3CCC12C (stereo not drawn) [Salt #8]
Change of x-ray powder diffraction pattern after DVS (in words) [1, 7]: some potential differences
Decomposition temperature (DSC) [2, 7]: about 184 °C

SMILES: CC(CCCC(C)(C)O)C1CCC2C3CC=C4CC(OS(=O)(=O)O)CCC4(C)C3CCC12C (stereo not drawn) [Salt #9]
First significant endothermic transition (DSC) ([2]; listed as benzathine): ~211 °C

More lines, main results first:

First significant endothermic transition (DSC) ([2]; listed as diethanolamine): ~181 °C
SMILES: CC(CCCC(C)(C)O)C1CCC2C3CC=C4CC(OS(=O)(=O)O)CCC4(C)C3CCC12C (stereo not drawn) [Salt #10]

First significant endothermic transition (DSC) ([2]; listed as t-butylammonium): ~201 °C
SMILES: CC(CCCC(C)(C)O)C1CCC2C3CC=C4CC(OS(=O)(=O)O)CCC4(C)C3CCC12C (stereo not drawn) [Salt #12]

Decomposition temperature (DSC) ([2]; listed as crystalline 25HC3S magnesium): about 139 °C
SMILES: CC(CCCC(C)(C)O)C1CCC2C3CC=C4CC(OS(=O)(=O)O)CCC4(C)C3CCC12C (stereo not drawn) [Salt #13]

Solubility in other solvents (in words) ([3]; any other common organic solvents or acidic or basic aqueous solutions): No solubility was detected
Decomposition temperature (DSC) [2]: about 186 °C
First significant endothermic transition (DSC) [2]: ~186 °C
SMILES: C[C@H](CCCC(C)(C)O)[C@H]1CC[C@H]2[C@@H]3CC=C4C[C@@H](OS(=O)(=O)O)CC[C@]4(C)[C@H]3CC[C@]12C [Salt #14]
Solubility in trifluoroacetic acid (in words) ([3]; trifluoroacetic acid): only adequately soluble in trifluoroacetic acid

— US20260317367A1, “SALTS INCLUDING CRYSTALLINE SALTS OF 25-HYDROXY-CHOLEST-5-EN-3-SULFATE AND METHODS FOR PREPARING SAME” (Durect Corporation, priority 2022, published 2026)
